Two compounds from patent US20100160443A1, “COMPOUNDS USEFUL FOR TREATING NEUROLOGICAL DISORDERS” (Yissum Research Development Company of The Hebrew …, priority 2003, published 2010) can be followed below.

“Also recorded” adds a separate entry of the source.

Data set [1] concerns tactile allodynia in rats with SNL neuropathy. Nature of the data set: Tactile allodynia (von Frey filaments) in the spinal nerve ligation (SNL) model of neuropathic pain. It counts as in vivo, rat. On the procedure: The effect on neuropathic pain (tactile allodynia) was measured 5-6 days following operation as disclosed above. Rats responding to mechanical stimuli of 10 g or less (in the operated leg) were eligible for the study and were included in the drug administration regime.
Briefly, under ketamine-xylazine anesthesia the rat was placed in a prone position and the left paraspinal muscles were separated from spinous processes at the L4-S2 level. Part of the L6 transverse process was removed and the L4-L6 spinal nerves were identified. The L5-L6 spinal nerves were isolated and tightly ligated and cut, distal to the dorsal root ganglion and proximal to the formation of the sciatic nerve. Following complete homeostasis the wound was sutured.
A volume of 4 ml/kg (volume of injected suspension/rat body weight) was then injected to the rats. […] The three drugs and the control vehicle were administered i.p. (intraperitoneally) to rats at postoperative days 7, 14 and 21 in a double blind randomized crossover manner.
The rat was placed on a metal mesh floor covered with a transparent plastic dome, a period of acclimatization was allowed prior to testing. VFFs were applied from underneath the mesh floor to the plantar surface of the foot. Each trial consisted of repeated applications of each of the VFFs in an ascending order for 5 times, each for a period of 1 second. testing between two consecutive ascending VFFs was separated by period of 2 min. If the rat withdrew the foot at least 3 times out of 5 at a specific VFF no further ascending filaments were tested and this filament was considered as a withdrawal threshold (response). Mechanical stimulus trials with the series of ascending VFF were repeated 2 times for a given time point. The repeated measurements were averaged and taken as the paw withdrawal threshold on a given time point.
The absolute threshold and the difference in the allodynic threshold (time point minus baseline) values were tested using Mann-Whitney Test and Kruskal-Wallis Nonparametric test (two tailed) followed by Dunn's Multiple comparison test. The ED50 (median effective dose) was calculated by using Probit analysis method.
Briefly, under ketamine-xylazine anesthesia (85 mg kg^−1, i.p and 13 mg kg^−1, i.p, respectively) rats were placed in a prone position and paraspinal muscles on the left were separated from the L4-S2 spinous processes. Part of the L6 transverse process was removed and the underlying L4-L6 spinal nerves were identified. The L5 and L6 spinal nerves were isolated, tightly ligated with 5-0 silk, and cut just distal to the ligature. The ligature was approximately 8 mm distal to the corresponding dorsal root ganglion (DRG). Following complete homeostasis the wound was sutured in layers, the skin closed with Michel clips, topical bacteriostatic power was applied, and 20000 units of duplo-penicillin was injected intramuscularly (i.m.).
We used a set of 9 nylon von Frey monofilaments (VFF, Semmes-Weinstein monofilaments, Stoelting, Wood Dale, Ill., USA) to quantify foot withdrawal in response to normally innocuous tactile stimuli. […] Forces were calibrated by lowering filaments onto the pan of an electronic balance until they just bent.
Rats were placed on a raised wire mesh screen (gaps 4 mm×4 mm), which allowed access to the plantar surface of the hindpaw from below. They were covered with a transparent plastic dome, 13 cm high, which prevented rearing on the hindlimbs. A period of 20 min was allowed for acclimation prior to sensory testing. The mid-plantar hindpaw skin just caudal to the footpads, half way between medial and lateral edges of the foot, was subjected to a series of 5 brief probes, spaced at about 1 s. Each such stimulus was sufficient to just bend the filament. Testing began with the filament with the weakest initial bending force (0.6 g). […] Response threshold was the bending force of the first monofilament in the series that evoked a criterion ≧⅗ responses.

Data set [2] deals with motor performance (rotarod test). Description: Neurological motor dysfunction tests (accelerating rotarod, observation for sedation). The note with it: for motor performance, time to fall off the rotarod: n=6, vehicle 118.0±2.3; for effect on motor performance (rotarod test) compared to vehicle: highest doses tested (VPA 400, DID 90 mg kg^−1 i.p.), p>0.05, n=6; for neurological motor dysfunction or sedation at the highest drug dose tested: normal rats. The method, then:
On the day of testing, a baseline response was obtained, and rats were subsequently administered drug or vehicle. […] In addition, we examined our rats individually for signs of motor dysfunction and sedation as assessed by posture and gate during spontaneous and induced movement, grooming, chewing, stepping reflex, and startle reflex evoked by tapping on the cage.
For each drug and dose, attenuation of tactile allodynia (threshold measured in g) was measured. […] These areas under the response curve values for every group of rats per dose were evaluated against vehicle treatment using the nonparametric Wilcoxon one tailed test (dose of drug tested vs. vehicle on the same treatment). […] A p value <0.05 was considered statistically significant.

Take `CC(C)C(C(N)=O)C(C)C` [DID, diisopropylacetamide]: the “antiallodynic effect / effectiveness for treating neuropathic pain” value in data set [1] (rat, in vivo) is reported as “effective for treating neuropathic pain”. Also, in data set [1] (rat, in vivo, ip), the “ED50 (tactile allodynia)” value amounted to 58 mg/kg, the SNL-ED50 was 58 mg/kg, the “dose dependence of the antiallodynic effect” value is “dose-related antiallodynic activity” and the “lowest effective dose (significant increase of the allodynic threshold vs vehicle)” value turned out to be 20 mg/kg. Also, in data set [1] (rat, in vivo, ip), the “rats with no response to 15 g or above VFF at the highest dose tested” value is 63% and the “time of maximal effect after administration” value was 120 min. For the same compound, the “motor performance, time to fall off the rotarod” value in data set [2] (DID 90 mg kg^−1 i.p., 120 min after dosing) came to 103.8 ± 22.3 s. For the same compound, in data set [2], the “effect on motor performance (rotarod test) compared to vehicle” value is listed as “no significant effect” and the “neurological motor dysfunction or sedation at the highest drug dose tested” value is on record as “not sufficient to cause neurological motor dysfunction or sedation”.
By ED50 is commonly meant the dose that gives a 50% effect, or the effect in half of the subjects. In the case of `CCCC(CCC)C(=O)O` [VPA, Valproic acid, reference compound], the “rats relieved from tactile allodynia at the highest dose tested” value in data set [1] (VPA 400 mg kg^−1 i.p.) came to 88%. For the same compound, in data set [1] (i.p., rat), the “dose dependence of the antiallodynic effect” value is given as “in a dose dependent manner; also recorded: in a dose-dependent manner”, the “lowest effective dose (significant increase of the allodynic threshold vs vehicle)” value was 300 mg/kg and the “time of maximal effect after administration” value is listed as 60 min. Moreover, the “ED50 (tactile allodynia)” value in data set [1] (i.p., rat, 60 min after dosing) turned out to be 269 mg/kg. In data set [1] (i.p., rat, 60 min post injection, DID at 120 min), the SNL-ED50 turned out to be 269 mg/kg. The ED50 in data set [1] (ip, 1 h, i.p., rat, 60 min after administration, protected = threshold of at least 15 g, read-out: ED50 (tactile allodynia threshold)) stood at 269 mg/kg. Besides, the “motor performance, time to fall off the rotarod” value in data set [2] (VPA 400 mg kg^−1 i.p., 60 min after dosing) was 96.8 ± 23.7 s. Also, in data set [2], the “effect on motor performance (rotarod test) compared to vehicle” value is on record as “no significant effect” and the “neurological motor dysfunction or sedation at the highest drug dose tested” value is given as “not sufficient to cause neurological motor dysfunction or sedation”.
